Laboratory results as given in patent publication US12704520B2, “Melanogenesis detection method using FAM86A” (Research & Business Foundation Sungkyunkwan University, priority 2019, dated 2026).

Experiments:
Assay type in all cases: cell-based, mouse
B16F10 cells [1] = assay: Melanin content assay after FAM86A knockdown; settings: FAM86A knockdown without α-MSH, 48 hours, absorbance 405 nm
Description: The B16F10 cells cultured in Example 1 were seeded in a 6-well plate at 5×10^4 cells/well and cultured for 24 hours, and the knockdown of the FAM86A gene was induced using FAM86A shRNA represented by SEQ ID NO: 17. The cells were cultured in an incubator under conditions of 37° C. and 5% CO2 for 48 hours, the medium was removed, and then a cell lysis buffer was added at 200 μL per well to lyse the cells, followed by centrifugation at 4° C. and 12,000 rpm for 5 minutes and removal of a supernatant. The resulting pellet was treated with 100 μL of a 10% sodium dodecyl sulfate-1M NaOH solution, and heated for 30 minutes at 60° C. Afterward, the heated solution was maintained at room temperature to cool to 25° C., and absorbance at 405 nm was measured. Here, an amount of melanin production was calculated based on 100% of the amount of melanin in cells in which the FAM86A gene was not knocked down.

B16F10 cells [2] = assay: Melanin secretion assay after FAM86A knockdown; settings: FAM86A knockdown without α-MSH, 48 hours, absorbance 475 nm
Description: The B16F10 cells cultured in Example 1 were seeded in a 6-well plate at 5×10^4 cells/well and cultured for 24 hours, and the knockdown of the FAM86A gene was induced using FAM86A shRNA represented by SEQ ID NO: 17. The cells were cultured in an incubator under conditions of 37° C. and 5% CO2 for 48 hours, the medium was removed, and then a cell lysis buffer was added at 200 μL per well to lyse the cells, followed by centrifugation at 4° C. and 12,000 rpm for 5 minutes and removal of a supernatant. 100 μL of the resulting supernatant was dispensed into a 96-well plate, and subjected to absorbance measurement at 475 nm. Here, an amount of melanin secretion was calculated based on 100% of the amount of melanin in cells in which the FAM86A gene was not knocked down.

cAMP = cAMP ELISA after FAM86A knockdown; settings: B16F10 cells
Description: The B16F10 cells cultured in Example 1 were seeded in 6-well plates at a density of 5×10^4 cells per well, grown for 24 hours, and FAM86A shRNA represented by SEQ ID NO: 17 was used for FAM86A gene knockdown. Afterward, the cells were washed twice with PBS. Subsequently, PBS was completely removed, and then 200 μL of RIPA buffer, which is a tissue lysis and staining reagent, was added to each plate, followed by harvesting cells with a scraper. Afterward, a BCA assay was conducted to quantify proteins, and then the expression of cAMP protein was measured using a cAMP ELISA kit (ab65355).

SEQ ID NO: 17: FAM86 shRNA (Mus musculus, NM_027446.2), pLKO.1 vector, target sequence SEQ ID NO: 27; used in the examples (DNA CCGGGTCTATGTAGCCTATACTATCCTCGAGGATAGTATAGGCTACATAGACTTTTTG)
increased: amount of melanin (production) (B16F10 cells [1]) | amount of melanin secretion (B16F10 cells [2]) | cAMP expression (cAMP)
